In the NIST ThermoML archive (doi:10.1021/acs.jced.7b00347):

Assay: mn = molality of the nth substance listed, in mol/kg
Conditions: for surface tension liquid-gas: Ring tensiometer; for electrical conductivity: 100 kPa, Liquid, Alternating current cell with electrodes

CCCCCCCC[NH+](CCO)CC(C)O.[Cl-] (centres undefined) + O
Conditions | electrical conductivity [S/m] | surface tension liquid-gas [mN/m]
293.15 K, m1 = 1.867e-05 | – | 62.99
293.15 K, m1 = 1.87e-05 | 0.00057 | –
293.15 K, m1 = 3.733e-05 | – | 56.87
293.15 K, m1 = 3.99e-05 | 0.000652 | –
293.15 K, m1 = 6.12e-05 | 0.000733 | –
293.15 K, m1 = 8.25e-05 | 0.000815 | –
293.15 K, m1 = 9.334e-05 | – | 47.51
293.15 K, m1 = 0.0001038 | 0.000896 | –
293.15 K, m1 = 0.0001251 | 0.000978 | –
293.15 K, m1 = 0.0001464 | 0.00106 | –
293.15 K, m1 = 0.0001676 | 0.00114 | –
293.15 K, m1 = 0.0001867 | – | 40.52
293.15 K, m1 = 0.0001889 | 0.00122 | –
293.15 K, m1 = 0.0002102 | 0.0013 | –
293.15 K, m1 = 0.0002315 | 0.00138 | –
293.15 K, m1 = 0.0002528 | 0.00147 | –
293.15 K, m1 = 0.000274 | 0.00155 | –
293.15 K, m1 = 0.00028 | – | 36.28
293.15 K, m1 = 0.0002953 | 0.00163 | –
293.15 K, m1 = 0.0003166 | 0.00171 | –
293.15 K, m1 = 0.0003379 | 0.00179 | –
293.15 K, m1 = 0.0003592 | 0.00187 | –
293.15 K, m1 = 0.0003734 | – | 33.31
293.15 K, m1 = 0.0003805 | 0.00196 | –
293.15 K, m1 = 0.0004017 | 0.00204 | –
293.15 K, m1 = 0.000423 | 0.00212 | –
293.15 K, m1 = 0.0004436 | – | 31.33
293.15 K, m1 = 0.0004443 | 0.0022 | –
293.15 K, m1 = 0.0004687 | 0.00226 | –
293.15 K, m1 = 0.0004932 | 0.00233 | –
293.15 K, m1 = 0.0005177 | 0.00239 | –
293.15 K, m1 = 0.0005421 | 0.00246 | –
293.15 K, m1 = 0.0005666 | 0.00252 | –
293.15 K, m1 = 0.000591 | 0.00259 | –
293.15 K, m1 = 0.0006155 | 0.00266 | –
293.15 K, m1 = 0.0006399 | 0.00272 | –
293.15 K, m1 = 0.0006644 | 0.00279 | –
293.15 K, m1 = 0.0006888 | 0.00285 | –
293.15 K, m1 = 0.0007133 | 0.00292 | –
293.15 K, m1 = 0.0007378 | 0.00298 | –
293.15 K, m1 = 0.0007622 | 0.00305 | –
293.15 K, m1 = 0.0007867 | 0.00312 | –
293.15 K, m1 = 0.0008111 | 0.00318 | –
293.15 K, m1 = 0.0008356 | 0.00325 | –
293.15 K, m1 = 0.00086 | 0.00331 | –
293.15 K, m1 = 0.0008845 | 0.00338 | –
293.15 K, m1 = 0.0009089 | 0.00345 | –
293.15 K, m1 = 0.0009334 | 0.00352 | 30.74
293.15 K, m1 = 0.001867 | – | 30.15
293.15 K, m1 = 0.0028 | – | 29.89
293.15 K, m1 = 0.003733 | – | 30
298.15 K, m1 = 1.867e-05 | – | 58.01
298.15 K, m1 = 1.87e-05 | 0.00071 | –
298.15 K, m1 = 3.733e-05 | – | 52.03
298.15 K, m1 = 3.79e-05 | 0.000793 | –
298.15 K, m1 = 5.71e-05 | 0.000877 | –
298.15 K, m1 = 7.64e-05 | 0.00096 | –
298.15 K, m1 = 9.334e-05 | – | 43.52
298.15 K, m1 = 9.56e-05 | 0.00104 | –
298.15 K, m1 = 0.0001148 | 0.00113 | –
298.15 K, m1 = 0.000134 | 0.00121 | –
298.15 K, m1 = 0.0001533 | 0.00129 | –
298.15 K, m1 = 0.0001725 | 0.00138 | –
298.15 K, m1 = 0.0001867 | – | 36.81
298.15 K, m1 = 0.0001917 | 0.00146 | –
298.15 K, m1 = 0.0002109 | 0.00154 | –
298.15 K, m1 = 0.0002302 | 0.00163 | –
298.15 K, m1 = 0.0002494 | 0.00171 | –
298.15 K, m1 = 0.0002686 | 0.00179 | –
298.15 K, m1 = 0.00028 | – | 33.44
298.15 K, m1 = 0.0002879 | 0.00188 | –
298.15 K, m1 = 0.0003071 | 0.00196 | –
298.15 K, m1 = 0.0003263 | 0.00204 | –
298.15 K, m1 = 0.0003455 | 0.00213 | –
298.15 K, m1 = 0.0003648 | 0.00221 | –
298.15 K, m1 = 0.000384 | 0.0023 | –
298.15 K, m1 = 0.0004032 | 0.00238 | –
298.15 K, m1 = 0.0004088 | – | 30.57
298.15 K, m1 = 0.0004364 | 0.00249 | –
298.15 K, m1 = 0.0004695 | 0.0026 | –
298.15 K, m1 = 0.0005026 | 0.00271 | –
298.15 K, m1 = 0.0005358 | 0.00282 | –
298.15 K, m1 = 0.0005689 | 0.00294 | –
298.15 K, m1 = 0.000602 | 0.00305 | –
298.15 K, m1 = 0.0006352 | 0.00316 | –
298.15 K, m1 = 0.0006683 | 0.00327 | –
298.15 K, m1 = 0.0007014 | 0.00338 | –
298.15 K, m1 = 0.0007346 | 0.00349 | –
298.15 K, m1 = 0.0007677 | 0.00361 | –
298.15 K, m1 = 0.0008009 | 0.00372 | –
298.15 K, m1 = 0.000834 | 0.00383 | –
298.15 K, m1 = 0.0008671 | 0.00394 | –
298.15 K, m1 = 0.0009003 | 0.00405 | –
298.15 K, m1 = 0.0009334 | 0.00417 | 29.9
298.15 K, m1 = 0.001867 | – | 29.43
298.15 K, m1 = 0.0028 | – | 29
298.15 K, m1 = 0.003733 | – | 28.91
